Entries after “also recorded” stand apart in the source; their conditions may differ.
Tested on: dcLVs
Settings: mouse, in vivo

| Compound | contraction of dcLVs | amount of CSF tracer (in dcLV) | contraction or dilation of dcLVs |
| --- | --- | --- | --- |
| [Cl-].[K+] [potassium chloride] | strongly but transiently contracted |  |  |
| CNC[C@H](O)c1cccc(O)c1 [phenylephrine] |  | decreased | contracts; also recorded: dosage dependent contraction |
